{"source": "patent US20260273007A1", "about": "“FEED ADDITIVE FOR IMPROVING PERFORMANCE OF FARMING ANIMALS” (Nutreco IP Assets B.V., priority 2023, published 2026)", "key": {"E. maxima": {"tested_on": "E. maxima", "experiment": "E. maxima infection of chickens: performance and fecal oocyst shedding (Example 8)", "assay_type": "in vivo", "conditions": "E. maxima-infected chickens, 90 mg/kg feed of monensin", "text": "Newly hatched chickens from Longnecker's hatchery, Elizabethtown, PA were housed in a Petersime brooder units and provided with feed and water ad libitum. All chickens were weighed and allocated to a cage. Per treatment, 60 chickens (5 birds/cage=12 replication) were used. Initial body weight was the same among treatments. For E. maxima infection freshly propagated E. maxima (ARS strain) were used to infect the birds. On d 14 after hatch, the birds were infected with 10,000 E. maxima oocysts through oral gavage. The experimental treatments were the following: [1]=Negative control (NC), non infected and untreated chicken; [2]=Positive control (PC)=[1]+infection; […] [4]=[2]+55 ppm of dried Glycyrrhiza glabra leaves; [5]=[2]+160 ppm of dried Glycyrrhiza glabra leaves. Monensin is the current standard used to control coccidiosis. […] Oocyst shedding: Faeces from each group was collected separately from 6-8 days post infection (dpi) for coccidiosis. To count coccidia oocysts, various dilutions were made initially to determine the optimum dilutions for enumeration of oocysts for each sample. Oocysts were counted microscopically using a McMaster counting chamber using a sodium chloride flotation method. The total number of oocysts shed per chicken were calculated using the formula: total oocysts/bird=(oocyst count×dilution factor×fecal sample volume/counting chamber volume)/number of birds per cage."}, "[1]": {"tested_on": "Alpha mouse liver 12 cells (AML12)", "assay_type": "cell-based"}}, "data": [{"compound": "CC[C@@]1([C@@H]2O[C@@H]([C@H]3O[C@@](O)(CO)[C@H](C)C[C@@H]3C)C[C@@H]2C)CC[C@H]([C@]2(C)CC[C@]3(C[C@H](O)[C@@H](C)[C@@H]([C@@H](C)[C@@H](OC)[C@H](C)C(=O)O)O3)O2)O1", "note": "[MO, monensin]", "values": [{"measurement": "ADFI d 15 to 19 (0 to 4 dpi)", "setting": "E. maxima", "result": 90, "unit": "g"}, {"measurement": "ADFI d 15 to 21 (0 to 6 dpi)", "setting": "E. maxima", "result": 93.5, "unit": "g"}, {"measurement": "ADFI d 15 to 23 (0 to 8 dpi)", "setting": "E. maxima", "result": 94.3, "unit": "g"}, {"measurement": "ADG d 15 to 19 (0 to 4 dpi)", "setting": "E. maxima", "result": 76.3, "unit": "g"}, {"measurement": "ADG d 15 to 21 (0 to 6 dpi)", "setting": "E. maxima", "result": 72.9, "unit": "g"}, {"measurement": "ADG d 15 to 23 (0 to 8 dpi)", "setting": "E. maxima", "result": 79.3, "unit": "g"}, {"measurement": "BW d 19 (4 dpi)", "setting": "E. maxima", "result": 890, "unit": "g"}, {"measurement": "BW d 21 (6 dpi)", "setting": "E. maxima", "result": "1,023 g"}, {"measurement": "BW d 23 (8 dpi)", "setting": "E. maxima", "result": "1,220 g"}, {"measurement": "FCR d 15 to 19 (0 to 4 dpi)", "setting": "E. maxima", "result": 1.191}, {"measurement": "FCR d 15 to 21 (0 to 6 dpi)", "setting": "E. maxima", "result": 1.31}, {"measurement": "FCR d 15 to 23 (0 to 8 dpi)", "setting": "E. maxima", "result": 1.21}, {"measurement": "Lesion score", "setting": "E. maxima", "result": "reduced"}, {"measurement": "Number of oocysts (fecal oocyst shedding, FIG. 2)", "setting": "E. maxima; faeces 6-8 dpi", "result": "reduced"}]}, {"compound": "Aflatoxin B1", "values": [{"measurement": "Cell viability (%)", "setting": "[1]", "result": 51.8, "unit": "%"}]}]}
